ChEMBL document CHEMBL4765432, “Design and synthesis of novel Flavone-based histone deacetylase inhibitors antagonizing activation of STAT3 in breast cancer” (Eur J Med Chem, 2020)
Activity calls are given as the source filed them. The calls are words filed in the database; no cut-off is given here.

How the values were obtained:
[1] = tested on: Bel-7402; assay: Cytotoxicity against human Bel-7402 cells assessed as reduction in cell viability incubated for 48 hrs by MTT assay; format: functional, cell-based; settings: Bel-7402, 48 h
[2] = tested on: HepG2; assay: Cytotoxicity against human HepG2 cells assessed as reduction in cell viability incubated for 48 hrs by MTT assay; format: functional, cell-based; settings: HepG2, 48 h
[3] = Genotoxicity in Salmonella typhimurium TA98 by Ames test; format: toxicity; settings: salmonella enterica subsp. enterica serovar typhimurium
[4] = tested on: 4T1; assay: Induction of cell cycle arrest in mouse 4T1 cells assessed as increase in p21 expression at 0.25 to 5 uM incubated for 24 hrs by Western blot analysis; format: functional, cell-based; settings: dose 0.25-5 µM
[5] = tested on: 4T1; assay: Antitumor activity against mouse 4T1 cells xenografted in BALB/c mouse assessed as tumor growth inhibition at 20 mg/kg, ip administered for 22 days and measured on day 22; format: functional, organism-based; settings: time 22.0 day
[6] = molecular target: Histone deacetylase 8 (Homo sapiens, UniProt Q9BY41); assay: Inhibition of recombinant human N-terminal GST-tagged full length HDAC-8 expressed in baculovirus infected in Sf9 cells using Boc-Lys (q-Ac)-AMC as substrate incubated for 10 mins followed by substrate addition and measured after 30 mins by fluorescence based assay
[7] = molecular target: Histone deacetylase 7 (Homo sapiens) (UniProt Q8WUI4); assay: Inhibition of recombinant human N-terminal GST-tagged HDAC-7 (501 to end residues) expressed in baculovirus infected in Sf9 cells at 10 uM using Boc-Lys (q-Ac)-AMC as substrate incubated for 10 mins followed by substrate addition and measured after 30 mins by fluorescence based assay relative to control; settings: time 40.0 min
[8] = tested on: A-375; assay: Cytotoxicity against human A-375 cells assessed as reduction in cell viability incubated for 48 hrs by MTT assay; format: functional, cell-based; settings: A-375, 48 h
[9] = tested on: 4T1; assay: Antitumor activity against mouse 4T1 cells xenografted in BALB/c mouse assessed as tumor growth inhibition at 50 mg/kg, po administered for 22 days and measured on day 22; format: functional, organism-based; settings: time 22.0 day
[10] = tested on: 4T1; assay: Induction of apoptosis in mouse 4T1 cells assessed as viable cells at 2.5 uM incubated for 72 hrs by annexinV-FITC and PI staining based flow cytometry analysis (reference value: 91.1 %); format: functional; settings: read-out: Activity
[11] = tested on: MDA-MB-231; assay: Induction of cell cycle arrest in human MDA-MB-231 cells assessed as increase in p21 expression at 0.25 to 5 uM incubated for 24 hrs by Western blot analysis; format: functional, cell-based; settings: dose 0.25-5 µM
[12] = tested on: SMMC-7721; assay: Cytotoxicity against human SMMC-7721 cells assessed as reduction in cell viability incubated for 48 hrs by MTT assay; format: functional, cell-based; settings: SMMC-7721, 48 h
[13] = tested on: 4T1; assay: Induction of apoptosis in mouse 4T1 cells assessed as early apoptotic cells at 1 uM incubated for 72 hrs by annexinV-FITC and PI staining based flow cytometry analysis (reference value: 1.65 %); format: functional
[14] = tested on: MDA-MB-231; assay: Induction of cell cycle arrest in human MDA-MB-231 cells assessed as G0/G1 phase accumulation at 2 uM incubated for 24 hrs by PI staining based flow cytometry analysis (reference value: 29.10 %); format: functional
[15] = molecular target: Polyamine deacetylase HDAC10 (Homo sapiens, UniProt Q969S8); assay: Inhibition of recombinant human N-terminal GST-tagged HDAC-10 (1 to 482 residues) expressed in baculovirus infected in Sf9 cells using Boc-Lys (q-Ac)-AMC as substrate incubated for 10 mins followed by substrate addition and measured after 30 mins by fluorescence based assay
[16] = tested on: BT-549; assay: Cytotoxicity against human BT-549 cells assessed as reduction in cell viability incubated for 48 hrs by MTT assay; format: functional, cell-based; settings: BT-549, 48 h
[17] = Toxicity in BALB/c mouse xenografted with human MDA-MB-231 cells assessed as effect on body weight at 25 mg/kg, ip administered for 34 days and measured on day 34; format: organism-based; settings: in vivo, 816 h, time 34 day
[18] = tested on: MDA-MB-231; assay: Induction of apoptosis in human MDA-MB-231 cells assessed as late apoptotic cells at 2.5 uM incubated for 72 hrs by annexinV-FITC and PI staining based flow cytometry analysis (reference value: 3.79 %); format: functional
[19] = tested on: MDA-MB-231; assay: Induction of apoptosis in human MDA-MB-231 cells assessed as viable cells at 2.5 uM incubated for 72 hrs by annexinV-FITC and PI staining based flow cytometry analysis (reference value: 90.3 %); format: functional; settings: read-out: Activity
[20] = tested on: MDA-MB-231; assay: Induction of apoptosis in human MDA-MB-231 cells assessed as early apoptotic cells at 1 uM incubated for 72 hrs by annexinV-FITC and PI staining based flow cytometry analysis (reference value: 5.57 %); format: functional
[21] = tested on: MDA-MB-231; assay: Induction of apoptosis in human MDA-MB-231 cells assessed as early apoptotic cells at 2.5 uM incubated for 72 hrs by annexinV-FITC and PI staining based flow cytometry analysis (reference value: 5.57 %); format: functional
[22] = molecular target: Histone deacetylase 3 (Homo sapiens, UniProt O15379); assay: Inhibition of recombinant human C-terminal GST-tagged full length HDAC-3 expressed in baculovirus infected in Sf9 cells using Boc-Lys (q-Ac)-AMC as substrate incubated for 10 mins followed by substrate addition and measured after 30 mins by fluorescence based assay
[23] = tested on: L02; assay: Cytotoxicity against human L02 cells assessed as reduction in cell viability incubated for 48 hrs by MTT assay; format: ADME, cell-based; settings: L02, 48 h
[24] = MRT in Sprague-Dawley rat at 20 mg/kg, iv measured upto 12 hrs by LC-MS/MS analysis; format: ADME, organism-based; settings: in vivo
[25] = tested on: 4T1; assay: Induction of apoptosis in mouse 4T1 cells assessed as early apoptotic cells at 2.5 uM incubated for 72 hrs by annexinV-FITC and PI staining based flow cytometry analysis (reference value: 1.65 %); format: functional
[26] = tested on: MDA-MB-231; assay: Induction of apoptosis in human MDA-MB-231 cells assessed as decrease in Bcl-2 expression incubated for 48 hrs by Western blot analysis; format: functional, cell-based; settings: dose 0.5-10 µM
[27] = Oral bioavailability in Sprague-Dawley rat at 20 mg/kg measured upto 12 hrs by LC-MS/MS analysis; format: ADME, organism-based; settings: in vivo
[28] = tested on: 4T1; assay: Induction of cell cycle arrest in mouse 4T1 cells assessed as G2/M phase accumulation at 1 uM incubated for 24 hrs by PI staining based flow cytometry analysis (reference value: 38.51 %); format: functional
[29] = tested on: 4T1; assay: Potency index, ratio of IC50 of SAHA to IC50 of compound for cytotoxicity against mouse 4T1 cells assessed as reduction in cell viability incubated for 48 hrs by MTT assay; format: functional
[30] = tested on: MDA-MB-231; assay: Induction of apoptosis in human MDA-MB-231 cells assessed as increase in caspase-3 cleavage incubated for 48 hrs by Western blot analysis; format: functional, cell-based; settings: dose 0.5-10 µM
[31] = tested on: 4T1; assay: Induction of cell cycle arrest in mouse 4T1 cells assessed as G0/G1 phase accumulation at 1 uM incubated for 24 hrs by PI staining based flow cytometry analysis (reference value: 42.06 %); format: functional
[32] = tested on: MDA-MB-231; assay: Induction of apoptosis in human MDA-MB-231 cells assessed as early apoptotic cells at 5 uM incubated for 72 hrs by annexinV-FITC and PI staining based flow cytometry analysis (reference value: 5.57 %); format: functional
[33] = tested on: PLC; assay: Cytotoxicity against human PLC cells assessed as reduction in cell viability incubated for 48 hrs by MTT assay; format: functional, cell-based

Chain of Polyamine deacetylase HDAC10 (Q969S8 whole entry, the tested form may be a part): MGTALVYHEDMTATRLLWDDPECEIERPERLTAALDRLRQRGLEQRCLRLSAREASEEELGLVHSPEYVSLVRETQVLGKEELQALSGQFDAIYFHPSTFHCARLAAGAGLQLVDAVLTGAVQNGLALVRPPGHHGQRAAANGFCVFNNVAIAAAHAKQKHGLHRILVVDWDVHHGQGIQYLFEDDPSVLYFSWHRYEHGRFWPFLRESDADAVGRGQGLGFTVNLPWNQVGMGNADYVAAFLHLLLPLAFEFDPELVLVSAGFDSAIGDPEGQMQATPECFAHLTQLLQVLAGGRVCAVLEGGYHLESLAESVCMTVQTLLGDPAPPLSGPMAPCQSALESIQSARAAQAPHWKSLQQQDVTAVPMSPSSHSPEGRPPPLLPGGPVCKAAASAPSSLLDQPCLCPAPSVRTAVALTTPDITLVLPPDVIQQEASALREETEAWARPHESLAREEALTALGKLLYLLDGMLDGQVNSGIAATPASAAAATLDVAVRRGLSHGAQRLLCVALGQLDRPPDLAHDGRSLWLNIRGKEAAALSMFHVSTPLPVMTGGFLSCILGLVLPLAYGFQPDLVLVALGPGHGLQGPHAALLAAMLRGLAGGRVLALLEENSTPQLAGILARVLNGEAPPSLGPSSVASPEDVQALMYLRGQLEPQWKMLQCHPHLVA
Chain of Histone deacetylase 3 (O15379 whole entry): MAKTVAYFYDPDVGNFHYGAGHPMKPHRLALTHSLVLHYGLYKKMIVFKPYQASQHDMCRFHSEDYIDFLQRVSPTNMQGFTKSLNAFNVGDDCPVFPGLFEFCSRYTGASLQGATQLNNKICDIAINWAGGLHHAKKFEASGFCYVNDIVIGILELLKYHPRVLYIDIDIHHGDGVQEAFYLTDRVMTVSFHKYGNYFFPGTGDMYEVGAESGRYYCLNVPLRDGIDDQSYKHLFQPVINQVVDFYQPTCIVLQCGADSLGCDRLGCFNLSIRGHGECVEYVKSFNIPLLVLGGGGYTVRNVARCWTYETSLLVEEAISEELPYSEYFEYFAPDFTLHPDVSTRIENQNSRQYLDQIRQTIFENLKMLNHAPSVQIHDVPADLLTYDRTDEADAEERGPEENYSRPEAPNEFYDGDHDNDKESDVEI
Chain of Histone deacetylase 7 (Homo sapiens) (Q8WUI4 whole entry): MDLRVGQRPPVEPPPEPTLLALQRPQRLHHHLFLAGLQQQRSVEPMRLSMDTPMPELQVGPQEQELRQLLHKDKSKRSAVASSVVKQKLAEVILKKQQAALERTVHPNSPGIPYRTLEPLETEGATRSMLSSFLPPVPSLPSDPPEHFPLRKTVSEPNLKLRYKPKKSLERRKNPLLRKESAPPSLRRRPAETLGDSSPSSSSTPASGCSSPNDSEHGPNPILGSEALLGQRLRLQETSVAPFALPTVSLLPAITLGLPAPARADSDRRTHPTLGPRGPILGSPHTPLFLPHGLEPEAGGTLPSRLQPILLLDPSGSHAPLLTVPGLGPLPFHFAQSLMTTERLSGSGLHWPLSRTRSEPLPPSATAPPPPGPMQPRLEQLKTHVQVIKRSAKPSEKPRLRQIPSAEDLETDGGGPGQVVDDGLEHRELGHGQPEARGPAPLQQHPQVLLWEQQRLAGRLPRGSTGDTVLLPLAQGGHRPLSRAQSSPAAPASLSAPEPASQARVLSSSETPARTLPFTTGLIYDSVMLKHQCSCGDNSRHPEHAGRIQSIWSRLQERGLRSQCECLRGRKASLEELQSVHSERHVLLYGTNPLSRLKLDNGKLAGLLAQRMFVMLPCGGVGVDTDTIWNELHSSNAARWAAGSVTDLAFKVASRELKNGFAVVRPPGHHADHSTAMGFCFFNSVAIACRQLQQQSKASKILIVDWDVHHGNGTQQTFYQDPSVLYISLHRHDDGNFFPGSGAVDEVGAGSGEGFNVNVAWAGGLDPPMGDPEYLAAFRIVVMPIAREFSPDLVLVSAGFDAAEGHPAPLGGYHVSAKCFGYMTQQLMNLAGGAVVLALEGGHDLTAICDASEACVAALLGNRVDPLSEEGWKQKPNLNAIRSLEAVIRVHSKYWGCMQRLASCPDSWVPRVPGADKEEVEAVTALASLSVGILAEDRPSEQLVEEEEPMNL
Chain of Histone deacetylase 8 (Q9BY41 whole entry): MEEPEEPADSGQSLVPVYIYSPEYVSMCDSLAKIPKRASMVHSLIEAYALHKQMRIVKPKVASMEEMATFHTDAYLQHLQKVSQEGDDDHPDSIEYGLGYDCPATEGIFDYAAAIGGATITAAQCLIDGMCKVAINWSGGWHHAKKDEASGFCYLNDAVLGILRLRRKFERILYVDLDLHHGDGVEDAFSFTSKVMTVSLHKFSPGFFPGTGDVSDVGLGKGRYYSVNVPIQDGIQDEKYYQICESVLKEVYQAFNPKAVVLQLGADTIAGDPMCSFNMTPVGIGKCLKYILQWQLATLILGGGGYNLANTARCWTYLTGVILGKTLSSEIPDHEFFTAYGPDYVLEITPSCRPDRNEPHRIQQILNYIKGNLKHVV

CN(C)CCOc1ccc(-c2cc(=O)c3c(O)cc(OCCCCCC(=O)NO)cc3o2)cc1.Cl
IC50 [1]: 3.31 µM | IC50 [2]: 1160 nM | Activity [3]: Toxic | Activity [4]: Active | TGI [5]: Active | IC50 [6]: 2500 nM | inhibition [7]: 43% | IC50 [8]: 1180 nM | TGI [9]: Active | viability at 2.5 µM [10]: 32.9% | Activity [11]: Active | IC50 [12]: 530 nM | Activity [13]: 15.5% | Activity [14]: 61.9% | IC50 [15]: 247 nM | IC50 [16]: 4.13 µM | Activity [17]: Non-Toxic | Activity [18]: 24.3% | viability at 2.5 µM [19]: 25.5% | Activity [20]: 23.1% | Activity [21]: 50.1% | IC50 [22]: 79.2 nM | IC50 [23]: > 10 µM | MRT [24]: 1.25 h | Activity [25]: 31.4% | Activity [26]: Dose-dependent effect | bioavailability [27]: 57.8% | Activity [28]: 19.39% | Ratio IC50 [29]: 2 | Activity [30]: Dose-dependent effect | Activity [31]: 49.62% | Activity [32]: 55% | IC50 [33]: 582 nM
